In patent US8822491B2, “Methods and compositions for treating β-thalassemia and sickle cell disease” (Academia Sinica, priority 2011, dated 2014):
Where two headings read alike, the source gives them in different places.

Legend:
Assay type in all cases: cell-based
[1] = system: Bcl11a; assay: Real-time RT-PCR of Bcl11a expression in primary human erythroid cultures; conditions: different concentrations of STO-609, 3 days, FIG. 7C
Protocol: (§1) Primary human erythroid cultures were treated with 0.25 μM of compound A, and the relative expression levels of different transcription factors were then determined by real-time RT-PCR analysis. The white bars indicate the expression levels of mock control set as 1. The black bars are the relative expression levels in compound A-treated cells.
(§2) Mouse erythroleukemic (MEL) cells, an adult erythroid cell line (Friend, et al. (1971) Proc Natl Acad Sci USA 68:378-82), were maintained in DMEM medium (Gibco) supplemented with 10% FBS and 1% penicillin-streptomycin, in 37° C. chamber under a 5% CO2 humidified atmosphere. For establishing stable cell lines, transfection of the reporter pmLAR-Gp-DsRed-Bp-d2EGFP into MEL cells was carried out using the Neon™ transfection system (Invitrogen). 2×10^6 MEL cells were transfected with 5 μg of the plasmid. Following microporation, the MEL cells were seeded in 10 ml antibiotics-free DMEM for 24 hrs and selected with […] of neomycin for one month. […]
(§3) Total RNAs were isolated with use of the RNAspin Mini kit (GE Healthcare). cDNA synthesis was carried out using SuperScript II reverse transcriptase (Invitrogen). Quantitative RT-PCR was performed using the SYBR Green PCR Master Mix (Applied Biosystems) and ABI 7500 real-time System. All data were analyzed after normalization to the expression level of the mouse or human […] gene.

[2] = system: β globin mRNA; assay: Real time RT-PCR of β globin mRNA in primary human erythroid cultures; set-up: dose or concentration left out as unconfirmed; conditions: STO-609, 3 days, FIG. 7A
Protocol: as §2, with “month. The primary human erythroid culture was initiated by maintaining the purified mononuclear cells in SFEM medium with 1× cc100 cytokine mix (StemSpan) for 7 days. The cells were then kept in the differentiation medium (SFEM with 20 ng/ml SCF, 1 U/ml EPO, 5 ng/ml IL-3, 2 micromolar dexamethasone) for another 7 days at a density of 0.1−1×10^6 cells/ml.” for “month.”
as §3

[3] = system: NF-E4; assay: Real-time RT-PCR of NF-E4 expression in primary human erythroid cultures; conditions: different concentrations of STO-609, 3 days, FIG. 7B
Protocol: as §1, §2, §3

[4] = system: c-Myb; assay: Real-time RT-PCR of c-Myb expression in primary human erythroid cultures; conditions: different concentrations of STO-609, 3 days, FIG. 7D
Protocol: Dosage effects of STO-609 on the proliferation and γ/β globin gene expression of differentiated human erythroid progenitor cells were analyzed as described for compounds A-F. The differentiated primary cultured erythroid cells were treated with different concentrations of STO-609 for 3 days. (A) Relative induction of β (white bars) and γ globin mRNAs (black bars) was determined by real time RT-PCR analysis. The proliferation curve of the cells is shown with the mock control being 100%. (B) Relative expression levels of NF-E4 were determined by real time RT-PCR analysis and shown by the grey bars. (C) Relative expression levels of Bcl11a in response to treatments with different concentrations of STO-609 are shown (white bars). (D) Relative expression levels of c-Myb in cells treated with different concentrations of STO-609 are shown (black bars). The mock control is set as 1. […]
as §3

[5] = system: γ globin mRNA; assay: Real time RT-PCR of γ globin mRNA in primary human erythroid cultures; set-up: expression level of the fetal γ globin gene: dose or concentration left out as unconfirmed
Protocol: (§4) Mouse erythroleukemic (MEL) cells, an adult erythroid cell line (Friend, et al. (1971) Proc Natl Acad Sci USA 68:378-82), were maintained in DMEM medium (Gibco) supplemented with 10% FBS and 1% penicillin-streptomycin, in 37° C. chamber under a 5% CO2 humidified atmosphere. For establishing stable cell lines, transfection of the reporter pmLAR-Gp-DsRed-Bp-d2EGFP into MEL cells was carried out using the Neon™ transfection system (Invitrogen). 2×10^6 MEL cells were transfected with 5 μg of the plasmid. Following microporation, the MEL cells were seeded in 10 ml antibiotics-free DMEM for 24 hrs and selected with […] of neomycin for one month. The primary human erythroid culture was initiated by maintaining the purified mononuclear cells in SFEM medium with 1× cc100 cytokine mix (StemSpan) for 7 days. The cells were then kept in the differentiation medium (SFEM with 20 ng/ml SCF, 1 U/ml EPO, 5 ng/ml IL-3, 2 micromolar dexamethasone) for another 7 days at a density of 0.1−1×10^6 cells/ml. The cells were treated with chemical compound at day 7 post-differentiation and then harvested for further analysis after 3 days of compound treatment.
as §3

[6] = system: human erythroid progenitor cells; assay: Cell proliferation (alamar Blue) of differentiated primary human erythroid cells; conditions: for IC50: Erythroid progenitor cell, 72 h, read-out: IC50 (concentration at which the cell proliferation rate is reduced by 50%)
Protocol: FIG. 3 illustrates induction of the endogenous globin genes in the primary culture of human erythroid progenitor cells by compound A. (A) Dosage effect of compound A in the differentiated human erythroid progenitor cells. The differentiated primary cultured cells were treated with different concentrations of compound A for 3 days. Total mRNA was extracted, and relative induction of the β and γ globin mRNAs was determined by real time RT-PCR analysis. The cell proliferation abilities were determined with use of alamar Blue reagent (mock control as 100%). The white bars indicated the relative expression levels of β-globin. The gray bars represent the relative levels of γ-globin mRNA. (B) Comparison of γ and β globin gene expression patterns in primary erythroid cultured cells treated with different fetal globin inducing agents. […] The total RNAs were then isolated for real time RT-PCR analysis. Relative induction of the β globin gene (white bars) and the γ globin gene (grey bars) was then determined.
IC50 values are the concentrations of the individual compounds at which the cell proliferation rates are reduced by 50%.
as §4

[7] = system: mouse embryonic εy globin mRNA; assay: Real-time RT-PCR of endogenous embryonic globin mRNA in MEL cells
Protocol: 5×10^4 MEL cells carrying the dual fluorescence reporter were seeded on optical Packard 96-well view plates, treated with […] of the individual compound for 3 days, and primary screened for their DsRed intensity with use of the Wallac Victor3 1420 multilabel counter (Ex: 550/9; Em: 620). The secondary screenings were performed using a digital image detector, Cellomics Arrayscan 3.0 system, which doubly confirmed the intracellular DsRed fluorescence induced by the compound treatment. The endogenous globin gene expression patterns in the positive MEL cells from the primary and secondary screens as well as in compound-treated primary human erythroid cultures were subsequently identified by real time RT-PCR analysis.
as §3

[8] = differentiated human primary erythroid cells, 3 days
[9] = different concentrations of compound A, 3 days, FIG. 3A

**Q.** What does the source list for `CC(=O)O.O=C(O)c1ccc2c3c1cccc3c(=O)n1c3ccccc3nc21` [STO-609, 7-oxo-7H-benzimidazo[2,1-a]benz[de]isoquinoline-3-carboxylic acid acetate]?
**A.** expression level of the γ globin gene repressor Bcl11a [1]: down-regulated; expression level of the adult β globin gene (elevated?) [2]: but not the adult β globin; transcription of the γ globin gene activator NF-E4 [3]: up-regulation; transcript of c-Myb [4]: significantly reduced; concentration at which the fetal γ globin gene expression was elevated ([5]; STO-609, 3 days, FIG. 7A): ≥ 50 µM; expression level of the fetal γ globin gene ([5]; STO-609, 3 days, FIG. 7A): elevated; ability to induce fetal γ globin expression ([5]; survey of compounds with the benzo[de]benzo[4,5]imidazo[2,1-a]isoquinolin-7-one core): displays the fetal γ globin-inducting capability

**Q.** What does the source list for `O=C(O)c1ccc(C(=O)O)c2c(-c3ccc4c(=O)n5c6ccccc6nc5c5ccc(C(=O)O)c3c45)ccc(C(=O)O)c12` [compound A, 8-(3-Carboxy-7-oxo-7H-benzo[de]benzo[4,5]imidazo[2,1-a]isoquinolin-4-yl)-naphthalene-1,4,5-tricarboxylic acid]?
**A.** IC50 [6, 8]: 0.2 µM; proliferation rates of the cells [6, 9]: in reverse relationship with the concentration of compound A; induction of endogenous mouse embryonic εy globin mRNA expression level [7]: more than 10 fold; γ-globin induction fold compared to TSA, hydroxyurea and sodium butyrate ([5]; compound A […] vs TSA 0.33 μM, HU 100 μM, NaB 0.5 mM, 3 days, FIG. 3B): highest γ-globin induction fold; relative expression level of the γ globin gene as a function of concentration [5, 9]: significantly increased

**Q.** For `O=c1c2cccc3cccc(c32)c2nc3ccccc3n12` [compound B, Benzo[de]benzo[4,5]imidazo[2,1-a]isoquinolin-7-one], which IC50 [6, 8] is on record?
**A.** Its IC50 is 21.8 µM.

**Q.** How did the IC50 [6, 8] turn out when `O=c1c2cccc3c(Cl)ccc(c32)c2nc3ccccc3n12` [compound C, 3-Chloro-benzo[de]benzo[4,5]imidazo[2,1-a]isoquinolin-7-one] was run?
**A.** Its IC50 is 75.2 µM.

**Q.** With `O=C(O)c1ccc2c(=O)n3c4ccccc4nc3c3ccc(C(=O)O)c1c23` [compound F, 7-Oxo-7H-benzo[de]benzo[4,5]imidazo[2,1-a]isoquinoline-3,4-dicarboxylic acid] as the compound, how does the IC50 [6, 8] read?
**A.** Its IC50 is 103 µM.

**Q.** How did the IC50 [6, 8] turn out when `NC(=O)NO` [hydroxyurea] was run?
**A.** Its IC50 is 146 µM.

**Q.** `CCCC(=O)[O-].[Na+]` [sodium butyrate] was tested. Which IC50 ([6]; Homo sapiens) did it give?
**A.** Its IC50 is 222 µM.
